Reference: patent US9951372B2, “Compounds and methods for assaying redox state of metabolically active cells and methods for measuring NAD(P)/NAD(P)H” (PROMEGA CORPORATION, priority 2011, dated 2018)
Where two headings read alike, the source gives them in different places.

Legend:
Format in all cases: biochemical
rat diaphorase [1] = conditions: 20 μM compound, 40 min
rat diaphorase [2] = conditions: 20 μM compound
rat diaphorase [3] = system: rat diaphorase
Clostridium diaphorase = system: Clostridium diaphorase
rat diaphorase [4] = system: rat diaphorase; remark: listed apart in the source
rat diaphorase [5] = system: rat diaphorase; remark: listed apart in the source
[6] = NADH no, diaphorase yes (5 u/ml rat)
[7] = NADH yes (10 μM), diaphorase no
[8] = NADH yes (10 μM), diaphorase yes (5 u/ml rat), 20 min
[9] = reaction time 0 min, 20 μM compound, 10 μM NADH
[10] = 20 μM compound, 10 μM NADH, 0.5 u/ml Clostridium diaphorase, 70 min
[11] = 20 μM compound, no NADH, 0.5 u/ml Clostridium diaphorase, 70 min
[12] = signal with NADH / without NADH, Clostridium diaphorase
[13] = 20 μM compound, 10 μM NADH, 5 u/ml rat diaphorase, 70 min
[14] = 20 μM compound, no NADH, 5 u/ml rat diaphorase, 70 min
[15] = signal with NADH / without NADH, rat diaphorase
[16] = ~1 min after LDR with 500 μM menadione, 20 μM compound, 10 μM NADH
[17] = ~1 min after LDR, 20 μM compound, 10 μM NADH
[18] = ~6 min after LDR with 500 μM menadione, 20 μM compound, 10 μM NADH
[19] = ~6 min after LDR, 20 μM compound, 10 μM NADH

For `CC1=C(C)C(=O)C(C(C)(C)CC(=O)N(C)CCN(C)C(=O)Oc2ccc3nc(C4=N[C@@H](C(=O)O)CS4)sc3c2)=C(C)C1=O` [PBI 4312, quinone trimethyllock-C2-diamine luciferin], the “Avg RLU” value (rat diaphorase [1]; NADH 0 μM) was 5410 RLU, the “Avg RLU” value (rat diaphorase [1]; NADH 0.006 μM) was 6447 RLU and the “Avg RLU” value (rat diaphorase [1]; NADH 0.012 μM) was 7075 RLU. The “Avg RLU” value (rat diaphorase [1]; NADH 0.024 μM) was 8864 RLU, the “Avg RLU” value (rat diaphorase [1]; NADH 0.049 μM) was 11190 RLU and the “Avg RLU” value (rat diaphorase [1]; NADH 0.098 μM) was 20126 RLU. For the same compound, the “Avg RLU” value (rat diaphorase [1]; NADH 0.195 μM) was 27871 RLU, the “Avg RLU” value (rat diaphorase [1]; NADH 0.39 μM) was 43659 RLU and the “Avg RLU” value (rat diaphorase [1]; NADH 0.78 μM) was 33801 RLU. For the same compound, the “Avg RLU” value (rat diaphorase [1]; NADH 1.56 μM) was 60043 RLU, the “Avg RLU” value (rat diaphorase [1]; NADH 3.125 μM) was 119311 RLU and the “Avg RLU” value (rat diaphorase [1]; NADH 6.25 μM) was 235674 RLU. For the same compound, the “Avg RLU” value (rat diaphorase [1]; NADH 12.5 μM) was 465875 RLU, the “Avg RLU” value (rat diaphorase [1]; NADH 25 μM) was 608014 RLU and the “Avg RLU” value (rat diaphorase [1]; NADH 50 μM) was 687602 RLU. The “Avg RLU” value (rat diaphorase [1]; NADH 100 μM) was 663944 RLU, the “Avg RLU” value (rat diaphorase [2]; NADH no, diaphorase no) was 4262 RLU and the “Avg RLU” value (rat diaphorase [2]; [6]) was 3910 RLU. The “Avg RLU” value (rat diaphorase [2]; [7]) was 3918 RLU, the “Avg RLU” value (rat diaphorase [2]; [8]) was 197017 RLU and the “Avg RLU” value (rat diaphorase [3]; [9]) was 7809 RLU. The “Avg RLU” value (rat diaphorase [3]; reaction time 2 min) was 150745 RLU, the “Avg RLU” value (rat diaphorase [3]; reaction time 5 min) was 206822 RLU and the “Avg RLU” value (rat diaphorase [3]; reaction time 10 min) was 305968 RLU. The “Avg RLU” value (rat diaphorase [3]; reaction time 15 min) was 366592 RLU, the “Avg RLU” value (rat diaphorase [3]; reaction time 25 min) was 499283 RLU and the “Avg RLU” value (rat diaphorase [3]; reaction time 30 min) was 529063 RLU. The “Avg RLU” value (rat diaphorase [3]; reaction time 40 min) was 544475 RLU, the “Avg RLU” value (rat diaphorase [3]; reaction time 50 min) was 599165 RLU and the “Avg RLU” value (rat diaphorase [3]; reaction time 60 min) was 571954 RLU. For the same compound, the “Avg RLU With NADH” value (Clostridium diaphorase; [10]) was 29068 RLU, the “Avg RLU Without NADH” value (Clostridium diaphorase; [11]) was 5311 RLU and the S/B (Clostridium diaphorase; [12]) was 5.5. For the same compound, the “Avg RLU With NADH” value (rat diaphorase [4]; [13]) was 120633 RLU, the “Avg RLU Without NADH” value (rat diaphorase [4]; [14]) was 4981 RLU and the S/B (rat diaphorase [4]; [15]) was 24. For the same compound, the “First Reading With menadione” value (rat diaphorase [5]; [16]) was 3527 RLU, the “First Reading Without menadione” value (rat diaphorase [5]; [17]) was 5900 RLU and the “Last Reading With menadione” value (rat diaphorase [5]; [18]) was 5062 RLU. The “Last Reading Without menadione” value (rat diaphorase [5]; [19]) was 39855 RLU.

`CC1=C(C)C(=O)C(C(C)(C)CC(=O)N(C)c2ccc(COC(=O)Nc3ccc4nc(C5=N[C@@H](C(=O)O)CS5)sc4c3)cc2)=C(C)C1=O` [PBI 4550, Quinone trimethyllock-N-methyl-luciferin carbamate] was tested, and the “Avg RLU With NADH” value (Clostridium diaphorase) was 25644 RLU, the “Avg RLU Without NADH” value (Clostridium diaphorase) was 2597 RLU and the S/B (Clostridium diaphorase) was 10. The “Avg RLU With NADH” value (rat diaphorase [4]) was 62987 RLU, the “Avg RLU Without NADH” value (rat diaphorase [4]) was 2337 RLU and the S/B (rat diaphorase [4]) was 27. The “First Reading With menadione” value (rat diaphorase [5]) was 1786 RLU, the “First Reading Without menadione” value (rat diaphorase [5]) was 16495 RLU and the “Last Reading With menadione” value (rat diaphorase [5]) was 2393 RLU. For the same compound, the “Last Reading Without menadione” value (rat diaphorase [5]) was 100603 RLU.

`CC1=C(C)C(=O)C(C(C)(C)CC(=O)N(C)CC(C)(C)CN(C)C(=O)Oc2ccc3nc(C4=N[C@@H](C(=O)O)CS4)sc3c2)=C(C)C1=O` [PBI 4565, Quinone trimethyllock-N,N′,2,2-tetramethylpropanediamine carbamate luciferin] was tested, and the “Avg RLU” value (rat diaphorase [1]; NADH 0 μM) was 967 RLU, the “Avg RLU” value (rat diaphorase [1]; NADH 0.006 μM) was 1120 RLU and the “Avg RLU” value (rat diaphorase [1]; NADH 0.012 μM) was 1412 RLU. For the same compound, the “Avg RLU” value (rat diaphorase [1]; NADH 0.024 μM) was 2300 RLU, the “Avg RLU” value (rat diaphorase [1]; NADH 0.049 μM) was 3065 RLU and the “Avg RLU” value (rat diaphorase [1]; NADH 0.098 μM) was 4931 RLU. The “Avg RLU” value (rat diaphorase [1]; NADH 0.195 μM) was 8863 RLU, the “Avg RLU” value (rat diaphorase [1]; NADH 0.39 μM) was 16200 RLU and the “Avg RLU” value (rat diaphorase [1]; NADH 0.78 μM) was 13828 RLU. For the same compound, the “Avg RLU” value (rat diaphorase [1]; NADH 1.56 μM) was 29258 RLU, the “Avg RLU” value (rat diaphorase [1]; NADH 3.125 μM) was 63621 RLU and the “Avg RLU” value (rat diaphorase [1]; NADH 6.25 μM) was 128719 RLU. The “Avg RLU” value (rat diaphorase [1]; NADH 12.5 μM) was 258360 RLU, the “Avg RLU” value (rat diaphorase [1]; NADH 25 μM) was 294331 RLU and the “Avg RLU” value (rat diaphorase [1]; NADH 50 μM) was 287306 RLU. The “Avg RLU” value (rat diaphorase [1]; NADH 100 μM) was 306242 RLU, the “Avg RLU” value (rat diaphorase [2]; NADH no, diaphorase no) was 801 RLU and the “Avg RLU” value (rat diaphorase [2]; [6]) was 860 RLU. For the same compound, the “Avg RLU” value (rat diaphorase [2]; [7]) was 891 RLU, the “Avg RLU” value (rat diaphorase [2]; [8]) was 98349 RLU and the “Avg RLU” value (rat diaphorase [3]; [9]) was 1294 RLU. For the same compound, the “Avg RLU” value (rat diaphorase [3]; reaction time 2 min) was 41615 RLU, the “Avg RLU” value (rat diaphorase [3]; reaction time 5 min) was 69945 RLU and the “Avg RLU” value (rat diaphorase [3]; reaction time 10 min) was 117067 RLU. For the same compound, the “Avg RLU” value (rat diaphorase [3]; reaction time 15 min) was 154427 RLU, the “Avg RLU” value (rat diaphorase [3]; reaction time 25 min) was 252212 RLU and the “Avg RLU” value (rat diaphorase [3]; reaction time 30 min) was 262123 RLU. For the same compound, the “Avg RLU” value (rat diaphorase [3]; reaction time 40 min) was 278567 RLU, the “Avg RLU” value (rat diaphorase [3]; reaction time 50 min) was 328037 RLU and the “Avg RLU” value (rat diaphorase [3]; reaction time 60 min) was 330433 RLU. The “Avg RLU With NADH” value (Clostridium diaphorase; [10]) was 18559 RLU, the “Avg RLU Without NADH” value (Clostridium diaphorase; [11]) was 646 RLU and the S/B (Clostridium diaphorase; [12]) was 29. The “Avg RLU With NADH” value (rat diaphorase [4]; [13]) was 48903 RLU, the “Avg RLU Without NADH” value (rat diaphorase [4]; [14]) was 479 RLU and the S/B (rat diaphorase [4]; [15]) was 102. The “First Reading With menadione” value (rat diaphorase [5]; [16]) was 324 RLU, the “First Reading Without menadione” value (rat diaphorase [5]; [17]) was 564 RLU and the “Last Reading With menadione” value (rat diaphorase [5]; [18]) was 446 RLU. The “Last Reading Without menadione” value (rat diaphorase [5]; [19]) was 4407 RLU.
